Values of other authors as cited in patent US20240316075A1, “METHODS FOR TREATMENT OF PAIN WITH CANNABINOIDS” (ANANDA SCIENTIFIC, INC, priority 2021, published 2024).

What was measured:
[1] = rats, oral, 120 mg/kg dose
CB2 receptors = CB2 receptors (Homo sapiens, UniProt P34972)
[2] = doses ranging from 10 mg to 6000 mg, single and multiple doses

Chain of CB2 receptors (P34972 whole entry): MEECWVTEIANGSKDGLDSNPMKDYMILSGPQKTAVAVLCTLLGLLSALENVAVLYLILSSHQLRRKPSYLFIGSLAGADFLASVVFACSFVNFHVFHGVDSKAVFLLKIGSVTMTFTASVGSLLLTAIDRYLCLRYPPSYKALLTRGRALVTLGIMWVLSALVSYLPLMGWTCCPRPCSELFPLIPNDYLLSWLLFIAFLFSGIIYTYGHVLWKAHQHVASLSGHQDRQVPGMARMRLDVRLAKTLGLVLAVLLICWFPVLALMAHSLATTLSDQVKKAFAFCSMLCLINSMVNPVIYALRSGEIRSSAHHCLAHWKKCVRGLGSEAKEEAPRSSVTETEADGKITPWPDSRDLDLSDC

C=C(C)[C@@H]1CCC(C)=C[C@H]1c1c(O)cc(CCCCC)cc1O [CBD, 2-(1R,6R)-3-methyl-6-prop-1-en-2-ylcyclohex-2-en-1-yl-5-pentylbenzene-1,3-diol]
T½ [1]: 4 to 5 h
Affinity for CB2 receptors (CB2 receptors): low affinity
Safety finding [2]: safe
